Assay results reported in patent publication US20200390755A1, “COMPOUND FOR TREATING NERVOUS SYSTEM DISEASES AND USE THEREOF” (SHAANXI MICOT TECHNOLOGY CO., LTD., priority 2018, published 2020).

Experiments:
[1] = system: rats with permanent cerebral ischemia; test: Neurobehavioral scoring in rats with permanent cerebral ischemia (MCAO thread plug); type: in vivo, SD rats; conditions: 0.078 mg/kg intravenous
Protocol: (§1) SD rats, male, about 220-250 g, were provided by the Experimental Animal Center of Medical College of Xi'an Jiaotong University. Rats were randomly divided into groups of 14 animals/group. The experiment included a sham group, a model group, a positive control Edaravone group and test compound groups 1-5.12 hours before the operation, the rats were fasted and were free to drink water, and then used for the modeling method of middle cerebral artery occlusion with thread plug. The rats were fixed on a wooden board after anesthesia, the common carotid artery was ligated proximally, the external carotid artery was ligated distally, and the main internal carotid artery into skull was retained. A ligature line was reserved at the bifurcation of the internal carotid artery for temporarily clamping the distal end of the internal carotid artery using an arterial clip. A 3-0 nylon thread with a length of 5 cm and a spherical shape with a diameter of 0.3 mm at the tip was inserted into the common carotid artery through a small incision at the bifurcation. The arterial clamp was loosened, and the thread plug was slowly advanced to 18˜20 mm. When there was resistance, the progress of the thread was stopped. At this time, the nylon thread plug entered the middle artery and blocked the blood flow, and then the ischemic phase began. The skin was sutured. In the sham operation group, the same procedure was executed, except that no thread plug was inserted.
(§2) Administering was performed at 0 h, 3 h, 6 h and 12 h after ischemia, and then administering was performed once a day for 7 consecutive days. The test compound was prepared into a 4 mg/mL solution with 1% CMC-Na solution and administered by gavage. The edaravone group received an intravenous dose of 0.078 mg/kg.
2) The rats were lifted at its tail about 1 foot off the ground to observe the condition of both forelimbs. The rats were placed on a level ground and pushed on both shoulders to observe the difference in resistance on both sides. The rats were placed on the ground to observe the walking. The assessment was conducted using a five-grade four-point scoring method (0 to 4 points). The higher the score, the more severe the neurobehavioral damage.
0 point: the behavior is completely normal;
1 point: when the rat is lifted at its tail off the ground, the forelimb on the opposite side of the operation rotates and folds inwardly.
2 points: when the rat is placed on a level ground and pushed on both shoulders to observe the difference in resistance on both sides, the resistance on the opposite side of the operation reduces;
3 points: when the rat is placed on the ground to the walking, it circles around the opposite side of the operation;
4 points: The injury is so severe that the rat is unable to move independently.
(§3) (2) Statistical analysis of data: SPSS18.0 statistical software was used for statistical analysis and the data of each group was expressed as the mean standard error (x±SEM). One-way ANOVA and multiple comparisons between groups were used to compare the averages of measurement data among multiple groups. Rank score test was used for behavioral grading data, and Kaplan-Meier method was used for mortality. P<0.05 was considered statistically significant.

[2] = system: rats with permanent cerebral ischemia; test: Cerebral infarction volume by TTC staining in rats with permanent cerebral ischemia; type: in vivo, SD rats; conditions: 0.078 mg/kg intravenous, after 7 days of ischemia
Protocol: as §1, §2
3) Percentage of cerebral infarction volume after 7 days of ischemia: TTC staining was used to observe the infarct area.
The rats in each group were sacrificed by spinal dislocation […]. The brain tissue was quickly peeled off and placed in the refrigerator at −20° C. to freeze to an appropriate hardness to remove the olfactory bulb, cerebellum and low brain stem. Continuous coronary slices were performed at 1 mm intervals, to obtain a total of 5 slices. The slices were placed in 0.5% triphenyltetrazolium chloride (TTC) in phosphate buffer (pH=7.4) and incubated in a 37° C. incubator without light for 15 min, and then fixed in paraformaldehyde and observed (fixed time should be within 24 h). The normal brain tissue is rosy red, and infarcted brain tissue is pale. After taking the picture, the slice was scanned to save the image. The area of cerebral infarction and the total area of slices were calculated using Image J processing software.
Cerebral infarction volume (%)=(volume of the contralateral hemisphere of the operation−volume of the uninfarcted portion of the hemisphere of the occlusion)/volume of the contralateral hemisphere of the operation×100%
as §3

[3] = molecular target: T1, TrkB receptor (Mus musculus, UniProt P15209); test: Western blotting of p-TrkB and t-TrkB in primary cortical neuron cells; type: cell-based; conditions: for Relative intensity of p-TrkB/t-TrkB protein: 10 min at 37° C., Vehicle = 100, n = 3
T1 construct: The culture continued until the primary cortical neuron cells mature; endogenous in cells; host or cells: primary cortical neurons from E18 mouse embryos (N171-82Q WT male x B6C3F1/J female)
Protocol: (§4) N171-82Q WT male mice were mated with female B6C3F1/J hybrid mice. B6C3F1/J mice 18 days after pregnancy were anesthetized with isoflurane and dissected to remove embryos, which were then placed in a 10 cm Petri dish containing Leibovitz's buffer. The head of the embryo was cut off, and the brain was peeled off to obtain the whole mouse brain, which was then placed in a new 10 cm Petri dish containing Leibovitz's buffer. The neurocortex of the brain was separated and placed in a 15 mL centrifuge tube containing 3 mL Leibovitz's buffer. The centrifuge tube was centrifuged at 1000 rpm for 1 minute, and the Leibovitz's buffer was gently removed from the centrifuge tube, and then 750 μL of 0.25% trypsin-EDTA and 75 μL of 0.1% DNase (2000 U/mL) were added to digest at 37° C. for 15 min. 750 μL of DMEM medium containing 5% FBS was added to stop the digestion. The cells were mixed well, and centrifuged at 1000 rpm for 5 minutes. Trypins/DNase mixture was removed, and 750 μL of Neurobasal medium (B-27, Glutamax, P/S) was added. The cells were mixed by gently pipetting with a pipette for 30 times. The cell suspension was filtered with a 40 µm filter and transferred to another new 50 mL centrifuge tube. 10 μL of the cell suspension was added to 90 μL of DMEM (diluted 10 times), and 10 μL of the liquid mixture was placed on a hemocytometer so that the suspension filled between the cover slip and the counting plate for counting. The cells in the four large grids of the plate were counted, wherein for the cells across the line, only the cells on the left and upper side lines were counted. The following formulas were used:
(§5) Number of cells/mL=total number of cells in the four large grids/4×10^4/mL
(§6) Total number of cells/mL=total number of cells in the four large grids/4×10^4/mL×dilution factor.
(§7) After counting, the cells were diluted with Neurobasal selection medium so that 1 mL of Neurobasal culture medium contained 0.5×10^6 cells.
(§8) 200 μL of PDL solution previously heated in a 37° C. water bath was added to each well of a 6-well plate, and incubated at 37° C. overnight to allow PDL to evenly coat the well plate. The PDL solution was absorbed and the plate was washed twice with PBS. Before use, the PBS remaining on the plate was absorbed and the cover was opened to dry the plate in a super clean bench. 2 mL of cell suspension was added to each well (37° C., 5% CO2), and the cells were cultured until adherence. The culture medium was replaced and the culture continued for 3 days, and then the growth status of neurons was observed. Every other 3 days, half of the medium was removed and replaced with fresh complete medium. The culture continued until the primary cortical neuron cells mature (usually mature on the 14th day of culture).
(§9) After the primary cortical neuron cells have matured, appropriate amount of freshly prepared culture medium was added until final volume in each well was 2 mL. The experiment included a blank control group (Vehicle), a positive control group BDNF (10 ng/mL), a control compound group (500 nM), and 6 test compound groups (500 nM). Three repeats were set for each dose. After incubating at 37° C. for 10 min, the culture solution was discarded and the cells were washed with pre-chilled PBS, and then 40 μL of pre-chilled lysate (RIPA buffer 10 mL and protease and phosphatase inhibitor 100 μL) was added to each well for lysis on ice for 30 min. After lysis, the cell was crushed by ultrasonic cell crusher, centrifuged at 14000 rpm for 20 min at 4° C. The supernatant was transferred to a new 1.5 mL centrifuge tube to extract protein. Western blotting experiments were used to detect the protein levels of (A) p-TrkB and t-TrkB; (B) p-AKT and t-AKT.
(§10) The software Sigmaplot 13.0 was used for statistical analysis of the data, and the data of each group was expressed as mean±standard error (x±SEM). […]

[4] = system: AKT signaling pathway; test: Western blotting of p-AKT and t-AKT in primary cortical neuron cells; type: cell-based, mouse; conditions: 10 min at 37° C., Vehicle = 100, n = 3
Protocol: as §4, §5, §6, §7, §8, §9, §10

[5] = system: Phospho-Akt S473; test: ELISA analysis of Phospho-Akt S473 in primary cortical neuron cells; type: cell-based, mouse; conditions: 10 min at 37° C.
Protocol: The primary cortical neuron cells were cultured in the same way as in Example 21, and after maturity, appropriate amount of freshly prepared culture medium was added until final volume in each well was 2 mL. The experiment included a blank control group (Vehicle), a positive control group BDNF (10 ng/mL), a control compound group (500 nM), and 6 test compound groups (500 nM). Three repeats were set for each dose. After incubating at 37° C. for 10 min, the culture solution was discarded and the cells were washed with pre-chilled PBS, and then 40 μL of pre-chilled lysate (RIPA buffer 10 mL and protease and phosphatase inhibitor 100 μL) was added to each well for lysis on ice for 30 min. After lysis, the cell was crushed by ultrasonic cell crusher, centrifuged at 14000 rpm for 20 min at 4° C. The supernatant was transferred to a new 1.5 mL centrifuge tube to extract protein. The p-Akt ELISA experiment quantitatively detected the intracellular p-Akt protein level.
A series of p-Akt standard solutions with different concentrations were prepared, and the absorbance value was measured to make a standard curve. Phospho-Akt1 (Ser473) sandwich ELISA kit was purchased from Cell Signaling Technology (catalog number 7160). The antibody was coated in a 96-well plate at 4° C. overnight and was washed. The coated plate was blocked with 2% bovine serum albumin (BSA), and after sufficient washing, 100 μL of sample diluent (supplied in the kit) was added to each well to dilute the extracted protein. The plate was incubated overnight at 4° C. After washing 4 times with 200 μL of washing buffer (supplied in the kit), 100 μL/well of detection antibody was added and the plate was incubated at 37° C. for 1 hour. After 4 washes, 100 μL of HRP-conjugated secondary antibody (supplied in the kit) was added and the plate was incubated at 37° C. for 30 minutes. After the final wash, 100 μL of TMB substrate was added to each well and the plate was incubated at 37° C. for 10 minutes. TMB was use as a substrate to detect the signal, since TMB can be oxidized to produce a blue solution. The reaction was stopped by adding 100 μL/well stop solution, and the test result can remain stable within one hour after the stop of the reaction. The value of each well at 450 nm and 650 nm was detected using a microplate reader. The optical density (OD) was determined by subtracting the reading at 650 nm (disturbance from the solution itself) from the reading at 450 nm. According to the OD value corresponding to the standard curve, the p-Akt concentration in each well was obtained.
the data of each group was expressed as mean standard error (x±SEM). The ratio of the detection results of each positive control group (BNDF), control compound group (the same control compound as in Example 21) and each test compound group to the blank control group was used as an indicator to compare the p-Akt test results of the positive control group, control compound group, and each test compound group. One-way ANOVA and LSD post-hoc test were used to compare the measurement data among multiple groups, and P<0.05 was considered statistically significant.

T1 sequence (P15209 32-821): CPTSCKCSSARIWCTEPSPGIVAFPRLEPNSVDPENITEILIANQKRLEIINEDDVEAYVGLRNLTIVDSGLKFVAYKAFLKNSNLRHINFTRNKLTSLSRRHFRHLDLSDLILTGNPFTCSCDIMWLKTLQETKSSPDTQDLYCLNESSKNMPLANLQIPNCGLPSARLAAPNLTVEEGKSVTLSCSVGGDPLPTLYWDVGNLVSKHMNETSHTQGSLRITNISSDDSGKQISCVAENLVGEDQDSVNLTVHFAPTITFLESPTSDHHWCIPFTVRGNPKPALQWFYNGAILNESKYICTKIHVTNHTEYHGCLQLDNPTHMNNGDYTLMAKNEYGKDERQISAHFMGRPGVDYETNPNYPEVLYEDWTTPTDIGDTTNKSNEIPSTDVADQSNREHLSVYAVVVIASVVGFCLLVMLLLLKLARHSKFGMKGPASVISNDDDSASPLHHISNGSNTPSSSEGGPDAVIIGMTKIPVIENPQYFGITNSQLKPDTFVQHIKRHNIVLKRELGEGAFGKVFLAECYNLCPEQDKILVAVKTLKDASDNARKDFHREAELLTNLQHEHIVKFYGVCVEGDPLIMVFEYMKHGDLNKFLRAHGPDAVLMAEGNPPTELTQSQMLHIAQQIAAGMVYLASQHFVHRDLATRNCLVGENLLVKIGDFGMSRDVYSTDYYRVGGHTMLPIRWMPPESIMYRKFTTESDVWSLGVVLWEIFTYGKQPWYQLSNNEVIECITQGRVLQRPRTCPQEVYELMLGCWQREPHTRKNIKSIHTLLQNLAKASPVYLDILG

`CC1=NN(c2ccccc2)C(=O)C1` [Edaravone, reference compound] was tested, and the “Neurobehavioral score (0 to 4 points)” value ([1]; 6 h after ischemia) was 2 ± 0.18, the “Neurobehavioral score (0 to 4 points)” value ([1]; 1 d after ischemia) was 2.36 ± 0.29 and the “Neurobehavioral score (0 to 4 points)” value ([1]; 2 d after ischemia) was 2.89 ± 0.31. For the same molecule, the “Neurobehavioral score (0 to 4 points)” value ([1]; 3 d after ischemia) was 2.38 ± 0.37, the “Neurobehavioral score (0 to 4 points)” value ([1]; 4 d after ischemia) was 2 ± 0.33 and the “Neurobehavioral score (0 to 4 points)” value ([1]; 5 d after ischemia) was 2.14 ± 0.46. The “Neurobehavioral score (0 to 4 points)” value ([1]; 6 d after ischemia) was 2 ± 0.31, the “Neurobehavioral score (0 to 4 points)” value ([1]; 7 d after ischemia) was 1.67 ± 0.21 and the “Volume percentage of cerebral infarction” value [2] was 33.50 ± 7.21%.

For `[2H]c1c(-c2ccc(N3CCCCC3)cc2)oc2c(O)c(O)ccc2c1=O` [Example 7, 3-deutero-7,8-dihydroxy-2-(4-(piperidin-1-yl)phenyl)-4H-chromen-4-one], the “Relative intensity of p-TrkB/t-TrkB protein” value ([3]; 500 nM) was 218.156 ± 12.556, the “Relative intensity of p-AKT/t-AKT protein” value ([4]; 500 nM) was 220.514 ± 3.476 and the “Relative content of p-Akt protein (ELISA, ratio to blank control group)” value ([5]; 500 nM) was 218.33±2.31%.

With `O=c1cc(-c2ccc(N3CCOCC3)cc2)oc2c(O)c(O)ccc12` [Control compound, reference compound] the “Relative intensity of p-TrkB/t-TrkB protein” value ([3]; 500 nM) was 138.890 ± 15.547, the “Relative intensity of p-AKT/t-AKT protein” value ([4]; 500 nM) was 147.748 ± 4.832 and the “Relative content of p-Akt protein (ELISA, ratio to blank control group)” value ([5]; 500 nM) was 138.33±2.08%.

B1: BDNF: Brain-derived neurotrophic factor, positive control, purchased from Peprotech (protein, UniProt P23560 19-247, looked up)
Neurotrophic factor BDNF …: APMKEANIRGQGGLAYPGVRTHGTLESVNGPKAGSRGLTSLADTFEHVIEELLDEDQKVRPNEENNKDADLYTSRVMLSSQVPLEPPLLFLLEEYKNYLDAANMSMRVRRHSDPARRGELSVCDSISEWVTAADKKTAVDMSGGTVTVLEKVPVSKGQLKQYFYETKCNPMGYTKEGCRGIDKRHWNSQCRTTQSYVRALTMDSKKRIGWRFIRIDTSCVCTLTIKRGR
B1 was tested, and the “Increase of relative intensity of p-TrkB compared with Vehicle group” value ([3]; BDNF 10 ng/mL) was 2.74 times, the “Relative intensity of p-TrkB/t-TrkB protein” value ([3]; BDNF 10 ng/mL) was 274.260 ± 8.047 and the “Relative intensity of p-AKT/t-AKT protein” value ([4]; BDNF 10 ng/mL) was 229.306 ± 3.912. The “Relative content of p-Akt protein (ELISA, ratio to blank control group)” value ([5]; BDNF 10 ng/mL) was 231%.
